Measured values reported in patent US9080199B2, “Method to generate novel bioactive molecules” (priority 2010, dated 2015).
“Also recorded” adds a separate entry of the source.

System: S. aureus N315 (MRSA N315)
Assay: Disk / agar diffusion bioactivity test (zone of inhibition) against S. aureus N315
Assay type: cell-based, Staphylococcus aureus
Conditions: clavu7 extract compounds/fractions, 25-30 μL on 6 mm filter disks on N315 lawn on TSA, 16-20 hours at 30° C.
Experimental: The two compounds were separated from one another by re-injecting the 11 to 11.5 minute fraction into the LC-MS system using an isocratic mobile phase of 30% methanol in water. Once separated, the two compounds were collected, concentrated by evaporating the solvent to a total volume of approximately 50 μL, and tested against S. aureus N315 to definitively determine which one is bioactive. This turned out to be m/z=215, which was identified as holomycin. Bioactivity testing is carried out by first spreading approximately 150 μL of an OD600˜0.01 S. aureus N315 culture in TSB onto a TSA plate to create a lawn of S. aureus N315. Next, 25-30 μL of each sample is deposited onto 6 mm sterile filter disks. The disks are allowed to dry and then placed onto the S. aureus N315 lawn. This plate is incubated for 16-20 hours at 30° C., after which it was examined for the appearance of a zone of inhibition around the disks.
The methanol sample was then concentrated further using a vacuum centrifuge (speed-vac or speed-yap) until approximately 100 μL remained. A 25 μL aliquot was then used to test for bioactivity against MRSA N315. This aliquot, which has not yet been fractionated on an HPLC system, is called a “crude extract.” About 40-50 μL of the concentrated sample was also injected into an HPLC-MS system. […]

CC(=O)Nc1c2sscc-2[nH]c1=O [holomycin]
bioactivity against S. aureus N315 (zone of inhibition around disks): inhibits growth; also recorded: bioactive | bioactivity against S. aureus N315 (zone of inhibition around disks) (listed as m/z=215 compound): bioactive
